Experimental data reported in paper PMC10744608, “Simplified Synthesis of Renieramycin T Derivatives to Target Cancer Stem Cells via β-Catenin Proteasomal Degradation in Human Lung Cancer” (Marine Drugs, 2023).

What was measured:
Type in all cases: cell-based, human
[1] = system: CSC spheroids of A549, H23, and H292 cells; assay: 3D CSC spheroid formation with immunofluorescence; conditions: 50 nM; for levels of CD133, CD44, and OCT4 in CSC spheroids: 24 h, immunofluorescence
Experimental: A three-dimensional (3D) spheroid was employed to generate the spheroids containing CSC subpopulations from lung cancer cells. For CSC-rich population establishment, the spheroid culture assay used in this study was slightly modified from a previously described method. Lung cancer cells, specifically NSCLC cells (A549, H23, and H292), were seeded onto a 24-well ultra-low attachment plate, with approximately density of 2.5 × 10^3 cells per well in a medium with a 1% FBS and Nutristem mix. The primary spheroids were allowed to form for 7 days. Every 2 days, fresh medium with 1% FBS and Nutristem mix was replenished. On day 7 of primary spheroid culture, primary spheroids were resuspended into single cells using trypsin, and again 2.5 × 10^3 cells/well were seeded into a 24-well ultra-low attachment plate. Secondary spheroids were allowed to form for 10 days. After 10 days, the secondary spheroids were treated with 50 nM concentration DH_32 for 24 h treatment. The spheroids that had undergone treatment were retrieved through centrifugation at 1000× g for 30 s and then rinsed with PBS. The spheroids were fixed with 4% paraformaldehyde in a 50 μL PBS solution for 20 min at room temperature, and then they were made permeable by treating them with 0.1% Triton X in PBS for 5 min at room temperature. The spheroids were exposed to a mixture of 5% FBS and 2% BSA in PBS for 1 h at room temperature to prevent non-specific protein interactions. Subsequently, the spheroids were incubated with primary antibodies (CD133, CD44, and OCT4) at a 1:250 dilution in a 30 μL PBS solution containing 2.5% FBS and 1% BSA, and this incubation took place overnight at 4 °C. On the subsequent day, the spheroids were rinsed with PBS and then exposed to secondary antibodies (Alexa Fluor 594-conjugated goat anti-rabbit IgG (H+L) and Alexa Fluor 488-conjugated goat anti-mouse IgG (H+L)) at a 1:500 dilution in a 30 μL PBS solution containing 2.5% FBS and 1% BSA at room temperature for 1 h 30 min. These spheroids were subjected to staining with Hoechst 33342 (Sigma, St. Louis, MO, USA) at a concentration of 10 μg/mL for a duration of 15 min at room temperature. Subsequently, the fluorescence signals were observed using a fluorescence microscope (Olympus IX 51 with DP70; Olympus America Inc., Center Valley, PA, USA). The intensity of fluorescence was quantified using Image J software. NSCLC spheroids treated with RT at 50 nM and cisplatin at 50 nM served as the positive control.

[2] = system: H23 cells; assay: MTT cell viability assay
Experimental: (§1) The cell viability was assessed using an MTT assay, determining the half-maximal inhibitory concentration (IC50) to screen right-half RT analogs (DH_18, DH_21, DH_32, DH_35, DH_38, and DH_39). Human NSCLC cells (A549, H23, and H292) were seeded in a 96-well cell culture plate at a density of 1 × 10^4 cells per well and incubated for 24 h at 37 °C. Subsequently, the culture medium was aspirated, and a complete medium with varying concentrations (0–100 μM) of right-half RT analogs was added for 24 h. Following the removal of the compound-containing medium, an MTT reagent at a concentration of 4 mg/mL was applied and incubated for 3 h at 37 °C. The MTT reagent was replaced with 100 μL of DMSO to dissolve the formazan crystals. The measurement of the formazan product was conducted at 570 nm utilizing a microplate reader. RT served as the positive control in this experiment.

[3] = system: A549 cells; assay: MTT cell viability assay; conditions: A549, 24 h treatment
Experimental: as §1

[4] = system: H292 cells; assay: MTT cell viability assay
Experimental: as §1

[5] = system: A549, H23, and H292 cells; assay: Western blot of CSC markers; conditions: 25, 50, and 100 nM, 24 h
Experimental: The protein expression levels in NSCLC cells were assessed through Western blot analysis. A549, H23, and H292 cells were seeded at a density of 4 × 10^5 cells per well in 6-well cell culture plates. These cells were subjected to treatments with DH_32 at concentrations of 0, 25, 50, and 100 nM for 24 h at 37 °C.
Following treatment, the cells were collected using cold PBS and incubated on ice with a lysis buffer. The lysis buffer contained 50 mM 4-(2-hydroxyethyl)-1-piperazineethanesulfonic acid (pH 7.5), 150 mM NaCl, 5 mM EDTA, 1% Triton X-100, 1 mM phenylmethylsufonyl fluoride, and 2 μg/mL pepstatin A (cat no: 9803, Cell Signaling), along with complete protease inhibitor cocktail tablets provided in EASYpack (Roche, cat no: 04693116001). The incubation occurred for 40 min on ice, followed by centrifugation at 12,000× g at 4 °C for 15 min. Cell lysates were collected, and the protein content was quantified using the bicinchoninic acid (BCA) protein kit from Thermo-Fisher Scientific, Rockford, IL, USA. […] A chemiluminescent substrate (Supersignal West Pico; Pierce, Rockford, IL, USA) was applied to detect complex reactivity, and the signal intensity was quantified through densitometry. Protein intensity was analyzed by using ImageJ software (Image J 1.52a, Rasband, W., National Institutes of Health, Bethesda, MD, USA). […]

Row | Compound | levels of CD133, CD44, and OCT4 in CSC spheroids [1] | IC50 ([2]; H23, 24 h treatment) [µM] | IC50 [3] [µM] | IC50 ([4]; H292, 24 h treatment) [µM] | size of spheroid formations [1] | CSC markers CD133, CD44, OCT4, and ALDH1A1 by western blot [5] | IC50 ([2]; Homo sapiens, NCI-H23, H23, 24 h treatment) [µM] | IC50 ([3]; Homo sapiens) [µM] | IC50 ([4]; Homo sapiens, NCI-H292, H292, 24 h treatment) [µM]
1 | CC=C(C)C(=O)OCC1c2c(c(O)c(C)c3c2OCO3)CC2C3C4=C(CC(C(C#N)N12)N3C)C(=O)C(C)=C(OC)C4=O (stereo not shown) [RT, Renieramycin T] | lesser effects | 2.93 ± 0.07 | 5.76 ± 0.23 | 1.52 ± 0.05 |  |  |  |  | 
2 | COC1=C(C)C(=O)C2=C(C1=O)[C@@H]1CN(Cc3ccc4ccccc4c3)[C@@H](C#N)[C@H](C2)N1C [DH_32, (1R,4R,5S)-9-methoxy-8,11-dimethyl-3-(naphthalen-2-ylmethyl)-7,10-dioxo-1,2,3,4,5,6,7,10-octahydro-1,5-epiminobenzo[d]azocine-4-carbonitrile] | dramatic decrease |  |  |  | decreased | dramatic decrease | 2.07 ± 0.11 | 4.06 ± 0.24 | 1.46 ± 0.06
